Data taken from patent US8987195B2 (priority 2012, dated 2015).
Where two headings read alike, the source gives them in different places.

Experiments:
HCV genotype 1b replicon = test: HCV replicon assay, genotype 1b replicon EC50; format: cell-based, Hepatitis C virus; settings: Hepatitis C virus, HCV replicon, genotype 1b, read-out: EC50 [gt-1b]
Procedure, shortened: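 Assay format: compound titration on stable replicon cells, no G418 during treatment, 24 to 48 hours. Lysates were assayed for replicon RNA (hybridization/protection or TaqMan) or luciferase; EC50 fitted to four parameters against DMSO.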

[1] = biological target: HCV NS3/4A protease genotype 1b (Hepatitis C virus genotype 1b, UniProt P26663); test: HCV NS3/4A protease time-resolved fluorescence (TRF) assay, Ki against genotype 1b; format: biochemical; settings: IC50 [gt-1b], NS3/4A protease TRF assay, genotype 1b enzyme 0.2 nM
Procedure, shortened: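 Time-resolved fluorescence readout of NS3/4A cleavage of 25 nM europium-labelled peptide over 2.5 h at room temperature, enzyme levels set for signal/background 10–30 (0.2, 0.4, 0.025 nM for 1b, A156T, 3a). Ki by IC50=Ki(1+[S]/KM).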

| Compound | EC50 (HCV genotype 1b replicon) [nM] | IC50 [1] [nM] | EC50 (HCV genotype 1b replicon; K+ salt) [nM] | IC50 ([1]; K+ salt) [nM] |
| --- | --- | --- | --- | --- |
| CCC1(OC(=O)N[C@H]2CCCCC/C=C\[C@@H]3C[C@@]3(C(=O)NS(=O)(=O)C3(C)CC3)NC(=O)[C@@H]3C[C@]4(CCc5c(c(C(F)(F)F)nc6ccc(OC)cc56)O4)CN3C2=O)CC1 [Example 452, 1-ethylcyclopropyl [(2R,6S,12Z,13aS,14aR,16aS)-9′-methoxy-14a-{[(1-methylcyclopropyl)sulfonyl]carbamoyl}-5,16-dioxo-5′-(trifluoromethyl)-1,1′,2′,5,6,7,8,9,10,11,13a,14,14a,15,16,16a-hexadecahydrospiro[cyclopropa[e]pyrrolo[1,2-a][1,4]diazacyclopentadecine-2,3′-pyrano[2,3-c]quinolin]-6-yl]carbamate] | 2.4 | 0.03 |  |  |
| COCCCOc1ccc2nc(C)c3c(c2c1)CC[C@]1(C[C@H]2C(=O)N[C@]4(C(=O)NS(=O)(=O)C5(C)CC5)C[C@H]4/C=C\CCCCC[C@H](NC(=O)OCC(C)(C)C)C(=O)N2C1)O3 [Example 453, 2,2-dimethylpropyl [(2R,6S,12Z,13aS,14aR,16aS)-9′-(3-methoxypropoxy)-5′-methyl-14a-{[(1-methylcyclopropyl)sulfonyl]carbamoyl}-5,16-dioxo-1,1′,2′,5,6,7,8,9,10,11,13a,14,14a,15,16,16a-hexadecahydrospiro[cyclopropa[e]pyrrolo[1,2-a][1,4]diazacyclopentadecine-2,3′-pyrano[2,3-c]quinolin]-6-yl]carbamate] | 1.78 | 0.017 |  |  |
| COc1ccc2nc(C3CC3)c3c(c2c1)[C@H](F)C[C@]1(C[C@H]2C(=O)N[C@]4(C(=O)NS(=O)(=O)C5(C)CC5)C[C@H]4/C=C\CCCCC[C@H](NC(=O)OCC(C)C)C(=O)N2C1)O3 [Example 454, 2-methylpropyl [(1′R,2S,6S,12Z,13aS,14aR,16aS)-5′-cyclopropyl-1′-fluoro-9′-methoxy-14a-{[(1-methylcyclopropyl)sulfonyl]carbamoyl}-5,16-dioxo-1,1′,2′,5,6,7,8,9,10,11,13a,14,14a,15,16,16a-hexadecahydrospiro[cyclopropa[e]pyrrolo[1,2-a][1,4]diazacyclopentadecine-2,3′-pyrano[2,3-c]quinolin]-6-yl]carbamate] |  |  | 1.38 | 0.024 |
| COc1ccc2nc(C3CC3)c3c(c2c1)[C@H](F)C[C@]1(C[C@H]2C(=O)N[C@]4(C(=O)NS(=O)(=O)C5(C)CC5)C[C@H]4/C=C\CCCCC[C@H](NC(=O)OCC(C)(C)C)C(=O)N2C1)O3 [Example 455, 2,2-dimethylpropyl [(1′R,2S,6S,12Z,13aS,14aR,16aS)-5′-cyclopropyl-1′-fluoro-9′-methoxy-14a-{[(1-methylcyclopropyl)sulfonyl]carbamoyl}-5,16-dioxo-1,1′,2′,5,6,7,8,9,10,11,13a,14,14a,15,16,16a-hexadecahydrospiro[cyclopropa[e]pyrrolo[1,2-a][1,4]diazacyclopentadecine-2,3′-pyrano[2,3-c]quinolin]-6-yl]carbamate] |  |  | 1.55 | 0.04 |
| COc1ccc2nc(C3CC3)c3c(c2c1)[C@H](F)C[C@]1(C[C@H]2C(=O)N[C@]4(C(=O)NS(=O)(=O)C5(C)CC5)C[C@H]4/C=C\CCCCC[C@H](NC(=O)OC(C)C)C(=O)N2C1)O3 [Example 456, propan-2-yl [(1′R,2S,6S,12Z,13aS,14aR,16aS)-5′-cyclopropyl-1′-fluoro-9′-methoxy-14a-{[(1-methylcyclopropyl)sulfonyl]carbamoyl}-5,16-dioxo-1,1′,2′,5,6,7,8,9,10,11,13a,14,14a,15,16,16a-hexadecahydrospiro[cyclopropa[e]pyrrolo[1,2-a][1,4]diazacyclopentadecine-2,3′-pyrano[2,3-c]quinolin]-6-yl]carbamate] |  |  | 1.41 | 0.021 |
| COc1ccc2nc(C3CC3)c3c(c2c1)[C@H](F)C[C@]1(C[C@H]2C(=O)N[C@]4(C(=O)NS(=O)(=O)C5(C)CC5)C[C@H]4/C=C\CCCCC[C@H](NC(=O)O[C@H](C)C(C)C)C(=O)N2C1)O3 [Example 457, (2R)-3-methylbutan-2-yl [(1′R,2S,6S,12Z,13aS,14aR,16aS)-5′-cyclopropyl-1′-fluoro-9′-methoxy-14a-{[(1-methylcyclopropyl)sulfonyl]carbamoyl}-5,16-dioxo-1,1′,2′,5,6,7,8,9,10,11,13a,14,14a,15,16,16a-hexadecahydrospiro[cyclopropa[e]pyrrolo[1,2-a][1,4]diazacyclopentadecine-2,3′-pyrano[2,3-c]quinolin]-6-yl]carbamate] |  |  | 1.17 | 0.068 |
| CC(C)(C)OC(=O)N[C@H]1CCCCC/C=C\[C@@H]2C[C@@]2(C(=O)NS(=O)(=O)C2(C)CC2)NC(=O)[C@@H]2C[C@]3(CCc4c(c(C(F)(F)F)nc5ccc(OCF)cc45)O3)CN2C1=O [Example 458, tert-butyl [(2R,6S,12Z,13aS,14aR,16aS)-9′-(fluoromethoxy)-14a-{[(1-methylcyclopropyl)sulfonyl]carbamoyl}-5,16-dioxo-5′-(trifluoromethyl)-1,1′,2′,5,6,7,8,9,10,11,13a,14,14a,15,16,16a-hexadecahydrospiro[cyclopropa[e]pyrrolo[1,2-a][1,4]diazacyclopentadecine-2,3′-pyrano[2,3-c]quinolin]-6-yl]carbamate] | 1.43 | 0.015 |  |  |
| COc1ccc2nc(C(F)(F)F)c3c(c2c1)[C@H](F)C[C@]1(C[C@H]2C(=O)N[C@]4(C(=O)NS(=O)(=O)C5(C)CC5)C[C@H]4/C=C\CCCCC[C@H](NC(=O)OCC(C)(C)C)C(=O)N2C1)O3 [Example 462, 2,2-dimethylpropyl [(1′R,2S,6S,12Z,13aS,14aR,16aS)-1′-fluoro-9′-methoxy-14a-{[(1-methylcyclopropyl)sulfonyl]carbamoyl}-5,16-dioxo-5′-(trifluoromethyl)-1,1′,2′,5,6,7,8,9,10,11,13a,14,14a,15,16,16a-hexadecahydrospiro[cyclopropa[e]pyrrolo[1,2-a][1,4]diazacyclopentadecine-2,3′-pyrano[2,3-c]quinolin]-6-yl]carbamate] | 5.75 | 0.036 |  |  |
| COc1ccc2nc(C)c3c(c2c1)CC[C@]1(C[C@H]2C(=O)N[C@]4(C(=O)NS(=O)(=O)C5(C)CC5)C[C@H]4/C=C\CCCCC[C@H](Nc4cccc(C)n4)C(=O)N2C1)O3 [Example 463, (2R,6S,12Z,13aS,14aR,16aS)-9′-methoxy-5′-methyl-N-[(1-methylcyclopropyl)sulfonyl]-6-[(6-methylpyridin-2-yl)amino]-5,16-dioxo-1,1′,2′,6,7,8,9,10,11,13a,14,15,16,16a-tetradecahydrospiro[cyclopropa[e]pyrrolo[1,2-a][1,4]diazacyclopentadecine-2,3′-pyrano[2,3-c]quinoline]-14a(5H)-carboxamide] | 2.16 | 0.057 |  |  |
| Cc1nc2cc(F)ccc2c2c1OC1(CC2F)C[C@H]2C(=O)N[C@]3(C(=O)NS(=O)(=O)C4(C)CC4)C[C@H]3/C=C\CCCCC[C@H](NC(=O)OC(C)(C)C)C(=O)N2C1 (stereo partly drawn) [Example 464, tert-butyl [(6S,12Z,13aS,14aR,16aS)-1′,8′-difluoro-5′-methyl-14a-{[(1-methylcyclopropyl)sulfonyl]carbamoyl}-5,16-dioxo-1,1′,2′,5,6,7,8,9,10,11,13a,14,14a,15,16,16a-hexadecahydrospiro[cyclopropa[e]pyrrolo[1,2-a][1,4]diazacyclopentadecine-2,3′-pyrano[2,3-c]quinolin]-6-yl]carbamate] | 15 | 1.03 |  |  |
| CCc1nc2ccc(OC)cc2c2c1O[C@]1(CC2)C[C@H]2C(=O)N[C@]3(C(=O)NS(=O)(=O)C4(C)CC4)C[C@H]3/C=C\CCCCC[C@H](NC(=O)c3ccc(C)s3)C(=O)N2C1 [Example 466, (2R,6S,12Z,13aS,14aR,16aS)-5′-ethyl-9′-methoxy-N-[(1-methylcyclopropyl)sulfonyl]-6-{[(5-methylthiophen-2-yl)carbonyl]amino}-5,16-dioxo-1,1′,2′,6,7,8,9,10,11,13a,14,15,16,16a-tetradecahydrospiro[cyclopropa[e]pyrrolo[1,2-a][1,4]diazacyclopentadecine-2,3′-pyrano[2,3-c]quinoline]-14a(5H)-carboxamide] | 1.62 | 0.041 |  |  |
| CCc1nc2ccc(OC)cc2c2c1O[C@]1(CC2)C[C@H]2C(=O)N[C@]3(C(=O)NS(=O)(=O)C4(C)CC4)C[C@H]3/C=C\CCCCC[C@H](NC(=O)c3ccn(CC)n3)C(=O)N2C1 [Example 467, (2R,6S,12Z,13aS,14aR,16aS)-5′-ethyl-6-{[(1-ethyl-1H-pyrazol-3-yl)carbonyl]amino}-9′-methoxy-N-[(1-methylcyclopropyl)sulfonyl]-5,16-dioxo-1,1′,2′,6,7,8,9,10,11,13a,14,15,16,16a-tetradecahydrospiro[cyclopropa[e]pyrrolo[1,2-a][1,4]diazacyclopentadecine-2,3′-pyrano[2,3-c]quinoline]-14a(5H)-carboxamide] | 4.71 | 0.028 |  |  |
| CCc1nc2ccc(OC)cc2c2c1O[C@]1(CC2)C[C@H]2C(=O)N[C@]3(C(=O)NS(=O)(=O)C4(C)CC4)C[C@H]3/C=C\CCCCC[C@H](NC(=O)c3ccn(C(F)F)n3)C(=O)N2C1 [Example 468, (2R,6S,12Z,13aS,14aR,16aS)-6-({[1-(difluoromethyl)-1H-pyrazol-3-yl]carbonyl}amino)-5′-ethyl-9′-methoxy-N-[(1-methylcyclopropyl)sulfonyl]-5,16-dioxo-1,1′,2′,6,7,8,9,10,11,13a,14,15,16,16a-tetradecahydrospiro[cyclopropa[e]pyrrolo[1,2-a][1,4]diazacyclopentadecine-2,3′-pyrano[2,3-c]quinoline]-14a(5H)-carboxamide] | 7.15 | 0.031 |  |  |
